This is an account of results in patent publication US5736548A, “6-aryl pyrazolo[3,4-D] pyrimidin-4-ones and compositions and method of use thereof” (Sanofi, priority 1997, dated 1998).

This assay addresses cGMP-PDE V (Homo sapiens, UniProt O76074). Nature of the assay: biochemical. More on the design: species or system various animal species and man. Conditions: for inhibition at 0.01 µM / inhibition at 0.1 µM / inhibition at 1 µM / inhibition at 10 µM: read-out: Percent Inhibition cGMP-PDE V; for IC50: values separated by / and marked * are separate experimental runs. As for the experimental part:
The cGMP-PDE and other PDE isozymes were isolated from cardiovascular tissues (heart and aorta) of various animal species and man by anion-exchange and affinity chromatography as described by Silver et al., Sec. Messeng. Phos. 13:13-25, 1991; PDE activity, in the presence and absence of test compounds was determined essentially as described by Thompson et al., Adv. Cyclic Nucleotide Res. 10:69-92. To determine the potency and selectivity of compounds as PDE inhibitors, compounds are screened for their effect on cyclic nucleotide hydrolysis at 10 μM. […] The IC50 values are calculated from concentration-response curves as described by Tallarida and Murray, Manual of Pharmacologic Calculations with Computer Programs, Procedure 8, Graded Dose-response, pp. 14-19, Springer-Verlag, New York, 1981.

Regarding `CCc1[nH]n(C2CCCC2)c2nc(-c3cc(OCCN4CCOCC4)cc(OCCN4CCOCC4)c3)nc(=O)c1-2` [38 (b), 1-cyclopentyl-3-ethyl-6-[3,5-di[2-(4-morpholinyl)ethoxy]phenyl]pyrazolo[3,4-d]pyrimidin-4-one], the inhibition at 0.01 µM turned out to be 11% and the inhibition at 0.1 µM amounted to 63%. As for `CCc1[nH]n(C2CCCC2)c2nc(-c3cccc(OCC(=O)N4CCOCC4)c3)nc(=O)c1-2` [40 (d), 1-cyclopentyl-3-ethyl-6-[3-(4-morpholinylcarbonylmethoxy)-phenyl]pyrazolo[3,4-d]pyrimidin-4-one], the inhibition at 0.1 µM came to 47% and the inhibition at 1 µM came out at 74%. Take `CCc1[nH]n(C2CCCC2)c2nc(-c3cccc(OCCN4CCSCC4)c3)nc(=O)c1-2` [41 (c), 1-cyclopentyl-3-ethyl-6-[3-[2-(4-thiomorpholinyl)ethoxy]phenyl]pyrazolo[3,4-d]pyrimidin-4-one]: the inhibition at 0.1 µM was 46% and the inhibition at 1 µM came out at 56%. As to `CCc1[nH]n(C2CCCC2)c2nc(-c3cccc(OCc4ccncc4)c3)nc(=O)c1-2` [42 (c), 1-cyclopentyl-3-ethyl-6-[3-[4-pyridinylmethoxy]phenyl]pyrazolo[3,4-d]pyrimidin-4-one], the inhibition at 0.01 µM was 25% and the inhibition at 0.1 µM was found to be 56%. In the case of `CCc1[nH]n(C2CCCC2)c2nc(-c3cccc(OC4CCCCN(C)C4)c3)nc(=O)c1-2` (stereo not drawn) [43 (b), 1-cyclopentyl-3-ethyl-6-[3-(1-methyl-3-hexahydroazepinyloxy)phenyl]pyrazolo[3,4-d]pyrimidin-4-one], the inhibition at 0.1 µM came out at 41% and the inhibition at 1 µM stood at 75%. For `CCOc1cc(-n2ccnc2)ccc1-c1nc2n(C3CCCC3)[nH]c(CC)c-2c(=O)n1` [46 (c), 1-cyclopentyl-3-ethyl-6-[4-(1-imidazolyl)-2-ethoxyphenyl]pyrazolo[3,4-d]pyrimidin-4-one], the inhibition at 0.1 µM amounted to 26%, the inhibition at 1 µM is 76%, the inhibition at 10 µM was 90% and the IC50 was 0.018 µM. `CCc1[nH]n(C2CCCC2)c2nc(-c3ccccc3)nc(=O)c1-2` [Example 2, 1-cyclopentyl-3-ethyl-6-phenyl-pyrazolo[3,4-d]pyrimidin-4-one] gave a half-maximal inhibitory concentration (IC50) of 0.25 µM. With `CCc1[nH]n(C2CCCC2)c2nc(-c3ccccc3O)nc(=O)c1-2` [Example 7, 1-cyclopentyl-3-ethyl-6-(2-hydroxyphenyl)pyrazolo[3,4-d]pyrimidin-4-one], the inhibition at 1 µM was 20% and the inhibition at 10 µM worked out at 51%. The like results for `CCc1[nH]n(C2CCCC2)c2nc(-c3ccc(OCCCN(C)C)cc3)nc(=O)c1-2` [Example 10, 1-cyclopentyl-3-ethyl-6-[4-[3-(dimethylamino)propoxy]phenyl]pyrazolo[3,4-d]pyrimidin-4-one] were, in that order, 15% and 85%. `CCc1nn(C2CCCC2)c2nc(-c3ccc(OCC(=O)O)cc3OC)[nH]c(=O)c12` [Example 14, 1-cyclopentyl-3-ethyl-6-[(2-methoxy-4-carboxymethoxy)phenyl]pyrazolo[3,4-d]pyrimidin-4-one] registered an IC50 of 0.81 µM. The same measure, in the same setting: with `CCc1[nH]n(C2CCCC2)c2nc(-c3ccccc3C(F)(F)F)nc(=O)c1-2` [Example 15, 1-cyclopentyl-3-ethyl-6-(2-trifluoromethylphenyl)-pyrazolo[3,4-d]pyrimidin-4-one] the figure was 0.5 µM. For the molecule `CCc1nn(C2CCCC2)c2nc(-c3ccccc3OCC(=O)O)[nH]c(=O)c12` [Example 16, 1-cyclopentyl-3-ethyl-6-[2-(carboxymethoxy)phenyl]pyrazolo[3,4-d]pyrimidin-4-one 1/2 hydrate], the inhibition at 1 µM came to 19% and the inhibition at 10 µM is 68%.

`CCc1[nH]n(C2CCCC2)c2nc(-c3ccc([N+](=O)[O-])cc3)nc(=O)c1-2` [Example 28, 1-cyclopentyl-3-ethyl-6-(4-nitrophenyl)pyrazolo [3,4-d]pyrimidin-4-one]: the inhibition at 1 µM stood at 40%.
